# Key:
# 2F5 mAb [1] = assay: SPR binding of 2F5 mAb to MPER peptide-liposomes with TLR adjuvants
# Description: FIGS. 10A-10C. Interaction of 2F5 mAb with MPER peptide-liposomes conjugated to TLR adjuvants.
# FIG. 21 Binding of BNAb 2F5 and 4E10 to MPER peptide-liposomes described in FIGS. 19-20. Synthetic MPER peptide-liposomes complexed to the indicated MPER peptide and TLR adjuvants (R848, Lipid A) were anchored on a BIAcore sencor ship (L1) and each mAb (2 μg/mL) injected over the surface. Binding shown is after subtraction of non-specific signal measured on a control liposome surface.
# 2F5 mAb [2] = conditions: for 2F5 mAb binding response: background subtracted, 10 seconds after the injection was stopped, peptides anchored to liposomes
# Description: FIGS. 6A and 6B. […] FIG. 6A. […] FIG. 6B.
# SPR binding assays were performed on a BIAcore 3000 (BIAcore Inc, Piscattaway, N.J.) maintained at 20° C. as previously described (Alam et al, J. Immunol. 178:4424-4435 (2007)). […] Specific binding responses of mAb binding were obtained following subtraction of non-specific binding on the scrambled 2F5 peptide surface.
# MPER-Specific Proteins = assay: NHP#91 Week 14 plasma binding to MPER-specific proteins by ELISA; format: in vivo, Rhesus macaques; conditions: NHP#91, Week 14, ELISA log AUC
# Excerpt: (§1) Rhesus macaques were immunized in 5 groups for NHP#87 with the different MPER peptide liposomes. Group 5 animals were immunized with a swarm of all of the MPER peptide liposomes. 4 animals per group. NHP#91 was a study to compare two adjuvants. Group 1 had MPLA alone and Group2 had R848 alone. The immunogen for both groups was the original MPER656 peptide liposome. The idea was to compare group 1 and 2 from this study to group 4 from NHP#87 where the animals received both MPLA and R848.
# NHP#91 and last group (656+MPLA+R848) is group 4 of NHP#87 (for all panels pre-immune substracted); Isolated plasma at Week 14 was screened for binding to each immunogen by ELISA. Plotted is the log area under the curve for binding for each individual monkey separated by group. Solid line indicates the average log AUC for each group.
# Immunogen Peptides = assay: NHP#91 Week 14 plasma binding to immunogen peptides by ELISA; format: in vivo, Rhesus macaques; conditions: NHP#91, Week 14, ELISA log AUC
# Excerpt: as §1
# NHP#91 and last group (656+MPLA+R848) is group 4 of NHP#87; Isolated plasma at Week 14 was screened for binding to each immunogen by ELISA. Plotted is the log area under the curve for binding for each individual monkey separated by group. Solid line indicates the average log AUC for each group.
substance,measurement,setting,value
NEKDLLALDSWKNLWNWFSITKWLWYIK [MPER656.2],binding of 2F5 mAb to peptide-liposome construct,2F5 mAb [1],lack of binding
QQEKNEQELLELDKWASSWNYKRWIILGLNKIVRMYS-biotin,off-rate of the mAb 2F5-peptide liposome complex,2F5 mAb [2],significantly slower off-rates
same,2F5 mAb binding response,2F5 mAb [2],616.7 response unit
QQEKNEQELLELDKWASLWNYKRWIILGLNKIVRMYS-biotin [consensus 2F5 epitope],2F5 mAb binding response,2F5 mAb [2],494.6 response unit
Monophosphoryl Lipid A [MPLA],"plasma binding to MPER-specific proteins, adjuvant comparison",MPER-Specific Proteins,better than R848
same,"plasma binding to immunogen peptides, adjuvant comparison",Immunogen Peptides,better than R848

# — patent US10076567B2, “MPER-liposome conjugates and uses thereof” (Duke University, priority 2013, dated 2018)
